According to patent US11040053B2, “Compositions and methods for activating “stimulator of interferon gene”13 dependent signalling” (CHINOOK THERAPEUTICS, INC., priority 2015, dated 2021):
Entries after “also recorded” stand apart in the source; their conditions may differ.

Tests used:
hSTING(REF) = hSTING(REF) (Homo sapiens, UniProt Q86WV6); experiment: Differential scanning fluorometry (DSF) binding to purified hSTING REF allele; set-up: DNA encoding amino acids 140-379 (amino acid numbering corresponding to Swiss Prot Q86WV6); 6xHIS (N, cleaved yes); SUMO (N, cleaved yes); made in house; host or cells: Rosetta2 (DE3) E. coli; details: for Tm shift compared with non fluorine substituted compounds and 2′3′-(G)(A), in words: FIG. 2, hSTING (REF); for binding relative to OH reference compound, in words / binding relative to naturally produced 2′3′-(G)(A), in words: Table 4 comment, REF allele hSTING
B16.F10 = B16.F10 melanoma mouse model, intra-tumoral injection; type: in vivo, C57BL/6 female mice; details: FIG. 15A, IT 10 or 100 μg, three injections, vs HBSS
Protocol: (§1) To assess the ability of the fluorinated derivative compounds to promote anti-tumor immunity in diverse murine tumor models, tumor cells were implanted (in 100 μL PBS) subcutaneously on the lower back of 6-8 week old C57BL/6 female mice. Treatments began when tumors reached a volume of approximately 100 mm^3, on approximately day 14 post tumor implantation (see table below for tumor type, number of cells, and day of IT injection). The CDN compounds were administered by IT injection (10 or 100 μg in a total volume of 40 μL HBSS), and repeated every three days for a total of three injections. The compounds 3′3′-RR-(2′F-A)(2′F-A) and 3′3′-RR-(2′F-G)(2′F-A) and control mice given vehicle only (40 μL HBSS) were dosed. Tumors were measured twice weekly.

hSTING(WT) [1] = biological target: T1, hSTING(WT) (Homo sapiens, UniProt Q86WV6, H232R); experiment: Differential scanning fluorometry (DSF) binding to purified hSTING WT; set-up: DNA encoding amino acids 140-379 (amino acid numbering corresponding to Swiss Prot Q86WV6); 6xHIS (N, cleaved yes); SUMO (N, cleaved yes); made in house; host or cells: Rosetta2 (DE3) E. coli; details: for Tm shift compared with non fluorine substituted compounds and 2′3′-(G)(A), in words: FIG. 3, hSTING (WT); for binding relative to OH reference compound, in words / binding relative to naturally produced 2′3′-(G)(A), in words: Table 4 comment, wild type hSTING
Target sequence in this assay (Q86WV6 140-379 H232R): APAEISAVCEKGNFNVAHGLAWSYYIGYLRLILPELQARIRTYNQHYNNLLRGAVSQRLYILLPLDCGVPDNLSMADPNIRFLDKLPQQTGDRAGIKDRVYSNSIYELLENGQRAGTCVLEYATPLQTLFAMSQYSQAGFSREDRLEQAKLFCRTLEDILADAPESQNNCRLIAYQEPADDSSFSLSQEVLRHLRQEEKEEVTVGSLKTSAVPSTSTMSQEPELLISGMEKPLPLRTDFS

[2] = biological target: T2, reference (REF) STING allele (Homo sapiens, UniProt Q86WV6); experiment: Cytokine transcript induction (qRT-PCR) in STING^REF/REF hPBMCs; type: cell-based; details: for relative normalized IFNβ expression, in words: FIGS. 8A-B, 2 hours stimulation, 100 μM to 0.1 μM; for cytokine responses (IFNβ, TNFα, IL-6, IFNγ, IL-12p40 expression), in words: FIGS. 9B-13B, 2 hours and 6 hours stimulation
T2 construct: endogenous in cells
Protocol: (§2) The induction of type I interferon was measured in human primary blood mononuclear cells (hPBMCs) to evaluate the potency of mono- or di-F-CDN compounds as described herein. hPBMCs from two unique donors were used: one donor was homozygous for the wild type (WT) STING allele (STING^WT/WT) and the other donor was homozygous for the so-called reference (REF) STING allele (STING^REF/REF). The STING genotype of these donors was determined by PCR amplification and sequencing: genomic DNA was isolated from 10^4 hPBMCs using Quick Extract DNA Extraction Solution (Epicentre) and was used to amplify regions of exon 3, 6, and 7 of the human STING gene.
(§3) Cells were incubated at 37° C., 5% CO2 with concentrations ranging from 100 μM to 0.1 μM of each CDN. After 2 hours (FIGS. 7 and 8) or 2 hours and 6 hours (FIGS. 9-13) stimulation, cells were harvested by centrifugation and washed once with phosphate-buffered saline. Cellular RNA was isolated using the Aurum Total RNA 96 Kit and cDNA was synthesized using the iScript cDNA Synthesis Kit. Target and reference gene expression was assessed by real-time qRT-PCR using PrimePCR probe assays and the CFX96 gene cycler (all reagents and equipment from BioRad). Normalized IFNβ expression was expressed relative to untreated cells. Target genes included type I interferon (IFNβ), Th1-associated cytokines (IFNγ, IL-12p40) and NF-kB dependent inflammatory cytokines (TNFα, IL-6). Reference genes included GUSB alone (FIGS. 7 and 8) or GUSB and HSP90AB1 (FIGS. 9-13).

[3] = biological target: T3, wild type (WT) STING allele (Homo sapiens, UniProt Q86WV6, H232R); experiment: Cytokine transcript induction (qRT-PCR) in STING^WT/WT hPBMCs; type: cell-based; details: for relative normalized IFNβ expression, in words: FIGS. 7A-B, 2 hours stimulation, 100 μM to 0.1 μM
T3 construct: one donor was homozygous for the wild type (WT) STING allele; endogenous in cells; host or cells: human PBMCs, donor STING WT/WT
Protocol: as §2, §3

hSTING(WT) [4] = biological target: T1, hSTING(WT); experiment: IFN-β luciferase reporter in HEK293T cells stably expressing hSTING(WT), digitonin permeabilization; details: FIGS. 5A-B, 0.1 μM to 100 μM and 6.25 μM CDN
Target sequence in this assay (Q86WV6 whole entry H232R, the tested form may be a part): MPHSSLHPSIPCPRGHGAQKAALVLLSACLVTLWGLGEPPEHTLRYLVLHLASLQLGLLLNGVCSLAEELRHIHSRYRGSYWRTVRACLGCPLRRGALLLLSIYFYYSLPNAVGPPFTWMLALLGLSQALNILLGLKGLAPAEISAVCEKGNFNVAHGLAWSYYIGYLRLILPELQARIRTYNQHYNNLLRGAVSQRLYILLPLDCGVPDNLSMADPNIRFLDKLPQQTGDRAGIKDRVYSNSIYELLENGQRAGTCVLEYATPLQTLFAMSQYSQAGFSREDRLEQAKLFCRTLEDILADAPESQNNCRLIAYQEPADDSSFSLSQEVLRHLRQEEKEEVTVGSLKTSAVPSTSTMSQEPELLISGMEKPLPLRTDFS
Protocol: 24 hours later, cells were stimulated with native and synthetic CDN derivative molecules using digitonin permeabilization to ensure uniform uptake.
After 20 min, the stimulation mixtures were removed and 200 ul of DMEM media supplemented with 10% (vol/vol) fetal bovine serum, 1% L-Glutamine, and 1% Penicillin/Streptomycin was added. Cells were incubated an additional 6 hours (37° C., 5% CO2) and then cell lysates were prepared and reporter gene activity measured on a Spectramax M3 luminometer using the Dual-Glo Luciferase Assay System (Promega, catalog #E2920) as described by the manufacturer. IFNβ firefly luciferase reporter gene activity was normalized to TK renilla luciferase gene activity and plotted as fold induction over activity in unstimulated cells (mean+/−s.e.m.).

MC38 = MC38 colon carcinoma mouse model, intra-tumoral injection; type: in vivo, C57BL/6 female mice; details: FIG. 15B, IT 10 or 100 μg, three injections, vs HBSS
Protocol: as §1

[5] = DSF, 1 mg/ml STING AA140-379, ligand 1 mM
[6] = listed as 3′3′-RR-(2′F-A)(2′F-A)
[7] = listed as 3′3′-RR-(2′F-G)(2′F-A)

T2 sequence (Q86WV6 whole entry): as the sequence (Q86WV6 whole entry H232R, the tested form may be a part) above, with R232H counted along it
Sequence of hSTING(REF) (Q86WV6 140-379): as the sequence (Q86WV6 140-379 H232R) above, with R93H counted along it
T3 sequence (Q86WV6 whole entry H232R): as the sequence (Q86WV6 whole entry H232R, the tested form may be a part) above

SMILES | hSTING Tm Shift REF (hSTING(REF); [5]) [°C] | Tm shift compared with non fluorine substituted compounds and 2′3′-(G)(A), in words (hSTING(REF)) | binding relative to OH reference compound, in words (hSTING(REF)) | binding relative to naturally produced 2′3′-(G)(A), in words (hSTING(REF)) | tumor volume, in words (B16.F10; [6]) | hSTING Tm Shift WT (hSTING(WT) [1]; [5]) [°C] | Tm shift compared with non fluorine substituted compounds and 2′3′-(G)(A), in words (hSTING(WT) [1]) | binding relative to OH reference compound, in words (hSTING(WT) [1]) | binding relative to naturally produced 2′3′-(G)(A), in words (hSTING(WT) [1]) | relative normalized IFNβ expression, in words [2, 6] | cytokine responses (IFNβ, TNFα, IL-6, IFNγ, IL-12p40 expression), in words [2] | relative normalized IFNβ expression, in words [3, 6] | IFNβ luciferase reporter induction by hSTING(WT), in words (hSTING(WT) [4]; [6]) | tumor volume, in words (MC38) | tumor volume, in words (B16.F10) | IFNβ transcript level compared to cells similarly dosed with 2′3′-(G)(A) [2] | relative normalized IFNβ expression, in words [2, 7] | relative normalized IFNβ expression, in words [3] | IFNβ level compared to the parent cGAMP compound ([3]; in the dose range tested) | IFNβ luciferase reporter induction by hSTING(WT), in words (hSTING(WT) [4]; [7])
Nc1ncnc2c1ncn2[C@@H]1O[C@@H]2CO[P@@](=O)(S)O[C@H]3[C@@H](F)[C@H](n4cnc5c(N)ncnc54)O[C@@H]3CO[P@@](=O)(S)O[C@H]2[C@H]1F [Compound 6, (2R,3R,3aR,5R,7aR,9R,10R,10aR,12R,14aR)-2,9-bis(6-amino-9H-purin-9-yl)-3,10-difluoro-5,12-dimercaptooctahydro-2H,7H-difuro[3,2-d:3′,2′-j][1,3,7,9]tetraoxa[2,8]diphosphacyclododecine 5,12-dioxide] | 9.1 | increased Tm shift | improved binding | improved binding | induced significant tumor inhibition as compared to HBSS; also recorded: complete tumor regression at the 100 μg dose | 19.3 | increased Tm shift | improved binding | improved binding | stimulated dose-dependent production of IFNβ transcript; also recorded: more potent inducers of IFNβ transcript STING^REF/REF hPBMCs than 2′3′-(G)(A) | induced more robust responses of all of the cytokines tested | induced similar levels of IFNβ; also recorded: induced higher levels of IFNβ transcript when compared to the 3′3′-(A)(A) compound; also recorded: stimulated higher levels of IFNβ transcript by STING^WT/WT hPBMCs when compared to non-canonical 2′3′-(G)(A) | induced higher levels of IFNβ reporter activity by hSTING(WT) than the non-fluorine substituted compounds; also recorded: stimulated higher levels of IFNβ reporter activity by hSTING(WT) when compared to the endogenous cellular ligand 2′3′-(G)(A) | elicited complete tumor regression at all doses tested |  |  |  |  |  | 
Nc1nc2c(ncn2[C@@H]2O[C@@H]3CO[P@@](=O)(S)O[C@H]4[C@@H](F)[C@H](n5cnc6c(N)ncnc65)O[C@@H]4CO[P@@](=O)(S)O[C@H]3[C@H]2F)c(=O)[nH]1 (stereo in doubt) [Compound 14, 2-Amino-9-((2R,3R,3aR,5R,7aR,9R,10R,10aR,12R,14aR)-9-(6-amino-9H-purin-9-yl)-3,10-difluoro-5,12-dimercapto-5,12-dioxidooctahydro-2H,7H-difuro [3,2-d:3′,2′-j][1,3,7,9]tetraoxa[2,8]diphosphacyclododecin-2-yl)-1,9-dihydro-6H-purin-6-one] |  | increased Tm shift | improved binding | improved binding |  |  | increased Tm shift | improved binding | improved binding |  | induced more robust dose-dependent responses of each of the cytokines tested |  |  | elicited complete tumor regression at all doses tested | induced significant tumor inhibition as compared to HBSS | 12- to 70 fold | stimulated dose-dependent production of IFNβ transcript; also recorded: more potent inducers of IFNβ transcript STING^REF/REF hPBMCs than 2′3′-(G)(A); also recorded: extremely potent stimulator of the REF STING allele | most potent inducer of type I interferon in STING^WT/WT hPBMCs | 10-100 fold | strongly induced IFNβ reporter activity by hSTING(WT); also recorded: more potently induced IFNβ reporter activity by hSTING(WT) than the compound 3′3′-(G)(A)
